From patent US9351494B2, “Honeybee repellents and uses thereof” (Inscent, Inc., priority 2013, dated 2016)

Key:
[1] = cited from earlier work
[2] = test system: Apis mellifera Carniolan foraging worker honeybees; assay: proboscis extension response (PER) assay with bees conditioned to 2-heptanone; format: in vivo; details: for 2-heptanone positive bees testing positive to compound: PER, compound 0.5% on filter paper, 4 seconds exposure, only bees giving a PER with 2-heptanone but not with negative controls counted
Method: To determine whether a living honeybee can recognize a candidate compound, these compounds were tested using a proboscis extension response (PER) assay using classical conditioning approaches. Proboscis extension response conditioning is a case of appetitive learning, in which bees learn to associate odor stimuli with sucrose reward in the laboratory. In this case, bees were conditioned to produce a PER to 2-heptanone as the conditioned stimulus and a sugar reward as the unconditioned stimulus. These trained bees were then exposed to an odor pulse of a candidate compound to test whether a candidate compound would also produce a PER. If the candidate compound “mimics” 2-heptanone then the honeybee will extend its proboscis. For conditioning procedures, Apis mellifera Carniolan foraging worker honeybees were obtained from a local apiary (typically 60 bees per shipment). The honeybees were held overnight in insect cages with food and water freely available, in an environmentally controlled room on a light cycle similar to the ambient cycle at the time of the assay. For conditioning procedures, all tests were done in an odorant delivery apparatus set inside a fume hood. The apparatus comprised a set of open-ended, horizontal, 3 cm diameter by 10 cm long plastic tubes. Each tube was designed where a honeybee could be positioned at the distal end of a tube, with the opening at the other end of the tube located proximal to an inlet of the fume hood. To deliver an odorant, room air was pumped by a diaphragm pump through a particle filter via 0.25 inch plastic tubing at approximately 0.7 m/sec. The air flow passes into the headspace above an odorant (0.5% [v/v]2-heptanone dissolved in odorless light paraffin oil) contained in a 100 mL bottle. The headspace air then passes through another plastic tube to a manifold of 4-way valves, each of which was attached near the proximal end of a plastic tube containing a bee. Each bee was exposed separately for a desired time period to the odorant by opening and closing the appropriate valve. When each valve was closed, the odor was flushed away immediately by the continuous fume hood air stream. To train a honeybee to respond to a conditioned and unconditioned stimuli, bees were placed, without anesthesia, in individual 1.5 mL micro-centrifuge holding tubes and held overnight without access to food or water. The holding tubes containing the starved bees were placed in racks in groups of eight. One rack at a time was placed behind the odorant delivery apparatus so that each bee's head is centered at the distal end of a horizontal plastic tube. Each bee was exposed to the 2-heptanone odorant alone for four seconds, and then while being fed an 80% sucrose solution for and additional three seconds. The sucrose solution was delivered on a piece of saturated filter paper held in forceps. […] Positive and negative responses were recorded. A positive PER was scored when a bee extended its proboscis before the sucrose appeared. In a typical trial, 48 individual bees were subjected to conditioning. Six rounds of training were done before testing began, and typically a majority of the bees were successfully conditioned by the second or third round of training. After conditioning, honeybees were tested with the candidate compounds the same day or on the following day or, most commonly, both. When held overnight, bees were fed with sucrose and kept in their holding tubes. When tested the day after training, bees were given one or more rounds of conditioning with 2-heptatone to refresh their memories. Candidate compounds stocks were made at 5% (w/v) in polyoxyethylene octyl phenyl ether (TRITON® X-100), a non-ionic detergent/surfactant, and stored at 4° C. This detergent is similar to substances used as carriers for a variety of commercial pest-control agents, can act as a solvent for both hydrophilic and hydrophobic substances, and is itself nearly odorless. […]

OBP2 = assay: fluorescent-quench, ligand-protein-binding assay (OBP2 binding); parameters: species or system Apis mellifera
Text: To identify a honeybee repellent disclosed herein, candidate compounds were screened based upon the fact that 2-heptanone is an established repellent of bees. 2-heptanone is thought to mediate its behavioral response through binding to a specific odorant-binding protein called OBP2. Therefore compounds that bind OBP2 have the potential to act as odor “mimics” of 2-heptanone. By utilizing a fluorescent-quench, ligand-protein-binding assay, 30,000 compounds from the […]® library (ChemBridge Corp., San Diego, Calif.), a chemical library, were screened and over 150 candidate compounds were isolated that bind OBP2 (Table 1). Such assays are generally known in the art. See, e.g., Briand, et al., Ligand-Binding Properties and Structural Characterization of a Novel Rat Odorant-Binding Protein Variant, Eur. J. Biochem. 267(10): 3079-3089 (2000); Briand, et al., Ligand Binding and Physico-Chemical Properties of ASP2, A Recombinant Odorant-Binding Protein From Honeybee (Apis mellifera L.), Eur. J. Biochem. 268(3): 752-760 (2001); Briand, et al., Characterization of a Chemosensory Protein (ASP3c) from Honeybee (Apis mellifera L.) as a Brood Pheromone Carrier, Eur. J. Biochem. 269(18): 4586-4596 (2002), each of which is hereby incorporated by reference in its entirety.

[3] = test system: Apis mellifera Carniolan foraging worker honeybees; assay: choice test in a free-flight box apparatus; format: in vivo; details: for Z-score: Z-test (alpha=10%) versus control likelihood 47.5%, critical Z-score 1.282, positive value attractant, negative repellant; for nP (number of tests a honeybee returned to a preferred test dish): candidate compound 0.05-0.5% on filter paper below honey dish, out of n total tests; for P (probability that a honeybee will return to a test dish, nP/n): compared to control likelihood of 47.5% without compound
Text: To determine whether living honeybees will choice to move towards a source of a candidate compound, these compounds will be assayed using a choice test in a free-flight box apparatus.
All tests will be done in a free-flight box apparatus. The apparatus comprises a 244 cm long×46 cm deep×30 cm high clear plastic box including two equally-sized independent testing chambers, each with 10 cm diameter air inlets that admit filtered room air, separated by a smaller central chamber with a screened air outlet to each testing chamber. Air can be pulled through the sealed box via a 10 cm diameter duct from the air outlet using an AQE Fume Fighter 500 fume extractor (BPA Air Quality Solutions, LLC, Charleston, S.C.), which removes the test odors using activated charcoal and HEPA filters. The box is housed in an environmentally controlled room with overhead illumination timed to correspond to the current ambient light cycle including 2 additional sets of lights timed to approximate crepuscular lighting conditions. The bottom of the apparatus will be lined with clean absorbent paper marked with a 4×9 grid pattern, forming 12 cm×12 cm squares with marked coordinates.
Apis mellifera Carniolan foraging worker honeybees will be obtained from a local apiary (typically 60 bees per shipment). Thirty honeybees will be put into each testing chamber and will be allowed to acclimate for 24 hours with food and water freely available. At the beginning of each test day all food will be removed from the test chamber, but water will be continually available throughout all tests. For each test, approximately 0.3 g of organic, raw orange blossom honey will be added to each clean small plastic weigh boat (Cole-Palmer). The honey boats will be placed in small plastic culture dishes, which will be distributed in the marked squares in the chambers. The positions of the dishes on the grid for a set of trials was chosen to avoid bees' preferred resting area so that they will have to find the food actively, but the same dish positions will be maintained for a given set of trials. We will use seven dishes of honey: six to which the bees will have access and a seventh that will have a screened lid. The honey in each boat was weighed on an analytical balance before and after the test, with the screened sample as a control for evaporative loss. The fume extractor was left off during the experimental trails, and was turned on to clear the air after the test dishes were covered and removed from the chamber at the end of each trial.
Based on the observation that bees tend to return to dishes in the same position where they have fed before, each set of trials with each group of bees began with “Pattern Identification” tests to see which dishes lose the most weight, reflecting the most feeding. Once bees are consuming an acceptable amount in 10-15 min, typically in 1-2 trials, a set of test compound trials will begin. The test compound will be pipetted onto pieces of filter paper placed on the dish bottom below the boat containing a fresh, weighed honey sample so that the test compound will be inaccessible to the bees. We used 2 μL of a candidate compound at a concentration of 0.05-0.5%, in Triton X-100 or paraffin oil, on each of four pieces of filter paper per dish. The test-solution dishes will be set at the same positions as the one or two dishes favored in the preceding Pattern Identification trial. To eliminate interference from the solvent, the other dishes without the test substance will contain the same volume of the appropriate solvent on filter papers as the test solution dishes. The bees will be allowed to feed for 10-15 minutes. Bee movements will be recorded by a small, wide-angle digital video camcorder (HD Hero 960; GoPro, Halfmoon Bay, Calif.) placed on a tripod in front of the test chamber. […]

Structure (SMILES)	solubility in alcohol or ether ([1]; alcohol or ether)	solubility in water ([1]; water)	total bees subjected to conditioning that exhibited a PER with the 2-heptanone positive control ([2]; 0.5% 2-heptanone in paraffin oil)	OBP2 binding characteristic of compound (OBP2)	2-heptanone positive bees testing positive to compound [2] [%]	Z-score [3]	nP (number of tests a honeybee returned to a preferred test dish) [3]	P (probability that a honeybee will return to a test dish, nP/n) [3]
CCCCCC(C)=O [2-heptanone, 2-Heptanone]	soluble	very slightly soluble	about half	–	–	–	–	–
O=C(NC(=S)N1CCCc2ccccc21)c1ccccc1 [Candidate Compound 62, N-(3,4-dihydro-1(2H)-quinolinylcarbonothioyl)benzamide]	–	–	–	Moderate (Moderate, indicates that 50% or less of the compound bound to OBP2.)	23.6	–	–	–
COc1ccc(C2SCC(=O)N2CCc2ccccc2)cc1 (centres unmarked) [Candidate Compound 63, 2-(4-methoxyphenyl)-3-(2-phenylethyl)-1,3-thiazolidin-4-one]	–	–	–	Moderate (Moderate, indicates that 50% or less of the compound bound to OBP2.)	21.4	0.394	32	0.5
CCOc1cc(C)nc(-c2ccccc2O)n1 [Candidate Compound 64, 2-(4-ethoxy-6-methyl-2-pyrimidinyl)phenol]	–	–	–	Moderate (Moderate, indicates that 50% or less of the compound bound to OBP2.)	21.7	−3.043	16	0.276
COc1ccc(CCC(C)NN2CCOCC2)cc1 (centres unmarked) [Candidate Compound 65, N-[3-(4-methoxyphenyl)-1-methylpropyl]-4-morpholinamine]	–	–	–	Moderate (Moderate, indicates that 50% or less of the compound bound to OBP2.)	7.6	–	–	–
CCOC(=O)c1c(NC(=O)C(C)(C)C)sc2c1CCCC2 [Candidate Compound 69, ethyl 2-[(2,2-dimethylpropanoyl)amino]-4,5,6,7-tetrahydro-1-benzothiophene-3-carboxylate]	–	–	–	Moderate (Moderate, indicates that 50% or less of the compound bound to OBP2.)	6.5	–	–	–
Nc1c(C(=O)c2ccccc2)sc2nc(-c3ccccc3)ccc12 [Candidate Compound 76, (3-amino-6-phenylthieno[2,3-b]pyridin-2-yl)(phenyl)methanone]	–	–	–	Moderate (Moderate, indicates that 50% or less of the compound bound to OBP2.)	11.9	–	–	–
C=CCOc1cc(C)nc(-c2ccccc2O)n1 [Candidate Compound 104, 2-[4-(allyloxy)-6-methyl-2-pyrimidinyl]phenol]	–	–	–	Moderate (Moderate, indicates that 50% or less of the compound bound to OBP2.)	27.9	–	–	–
